In PMC2972649 (Journal of Medicinal Chemistry, 2010):

Legend:
[1] = molecular target: T1, Nek2 (Homo sapiens, UniProt P51955); assay type: biochemical; settings: for fold improvement in Nek2 potency on substitution of the thiophene: comparator not given
T1 sequence (P51955 1-445): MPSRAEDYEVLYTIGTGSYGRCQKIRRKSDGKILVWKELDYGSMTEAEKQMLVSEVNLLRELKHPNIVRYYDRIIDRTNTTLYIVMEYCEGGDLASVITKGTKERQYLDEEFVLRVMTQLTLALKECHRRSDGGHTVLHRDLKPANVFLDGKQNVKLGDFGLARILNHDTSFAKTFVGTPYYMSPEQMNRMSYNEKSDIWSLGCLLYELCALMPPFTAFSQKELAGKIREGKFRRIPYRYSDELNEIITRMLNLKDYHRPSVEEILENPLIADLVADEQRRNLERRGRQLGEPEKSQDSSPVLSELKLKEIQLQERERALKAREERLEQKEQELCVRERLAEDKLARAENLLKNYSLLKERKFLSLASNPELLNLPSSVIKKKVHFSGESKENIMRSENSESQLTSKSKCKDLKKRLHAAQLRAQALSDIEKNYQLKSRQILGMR

[2] = molecular target: T2, Nek1 (Homo sapiens, UniProt Q96PY6); assay: Nek1 Caliper kinase assay; assay type: biochemical; settings: Nek2 versus Nek1
T2 sequence (Q96PY6 1-505 limits assumed): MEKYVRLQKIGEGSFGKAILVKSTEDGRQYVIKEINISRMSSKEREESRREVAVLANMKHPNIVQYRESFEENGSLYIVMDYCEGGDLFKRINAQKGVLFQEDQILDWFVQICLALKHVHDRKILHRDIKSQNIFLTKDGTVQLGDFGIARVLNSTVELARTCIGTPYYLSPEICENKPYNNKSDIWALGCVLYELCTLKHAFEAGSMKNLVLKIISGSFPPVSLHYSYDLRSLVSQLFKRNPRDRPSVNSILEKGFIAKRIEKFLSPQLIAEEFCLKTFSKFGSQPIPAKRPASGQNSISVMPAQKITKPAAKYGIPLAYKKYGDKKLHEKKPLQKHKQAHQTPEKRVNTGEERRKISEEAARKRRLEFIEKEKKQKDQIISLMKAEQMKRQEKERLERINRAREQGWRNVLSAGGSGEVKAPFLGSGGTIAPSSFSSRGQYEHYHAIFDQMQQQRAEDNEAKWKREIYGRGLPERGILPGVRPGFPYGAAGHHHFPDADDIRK

SMILES	fold loss of Nek2 potency compared to hit 2 [1]	fold improvement in Nek2 potency on substitution of the thiophene [1]	selectivity against Nek1 [2]
COc1cc(-c2cnc(N)c(N3CC[C@H](C(=O)O)[C@H](C)C3)n2)cc(OC)c1OC [Compound 20, (−)-(3S,4S)-1-(3-Amino-6-(3,4,5-trimethoxyphenyl)pyrazin-2-yl)-3-methylpiperidine-4-carboxylic Acid]	10	–	–
Nc1ncc(-c2sccc2C2CC2)nc1N1CCC(C(=O)O)CC1 [Compound 36]	–	approximately 4 fold	–
CCc1ccsc1-c1cnc(N)c(N2CCC(C(=O)O)CC2)n1 [Compound 35]	–	approximately 4 fold	approximately 10 fold
Nc1nccnc1N1CCC(C(=O)O)CC1 [Compound 8]	approximately 50 fold	–	–
COc1cccc(-c2cnc(N)c(N3CCC(C(=O)O)CC3)n2)c1 [Compound 5]	4-5 fold	–	–
